{"source": "patent US20140364460A1", "about": "“USE OF FATOSTATIN FOR TREATING CANCER HAVING A p53 MUTATION” (THE TRUSTEES OF COLUMBIA UNIVERSITY IN THE CITY OF NEW YORK, priority 2012, published 2014)", "key": {"[1]": {"test_system": "mutant p53 binding to the HMG-CoA reductase gene promoter", "experiment": "Quantitative ChIP of mutant p53 in fatostatin-treated MDA-468.shp53 cells", "type": "cell-based", "conditions": "fatostatin 20 μM, six independent experiments, p<0.01", "method": "FIG. 1. MDA-468.shp53 cells were treated with fatostatin (20 μM) and subjected to ChIP analysis. Data are presented as mean+−SD of six independent experiments. **p<0.01\nChromatin Immunoprecipitation (ChIP) experiments were carried out as described in Beckerman et al., 2009. Briefly, MDA-468 cells were treated with 1% formaldehyde prior to lysis in RIPA Buffer and sonication to yield 500 bp fragments. Protein A/G Sepharose beads were conjugated to anti-p53 antibodies (1801/D0-1) which were subsequently used to immunoprecipitate p53 from 1 mg whole cell lysate. Quantitative ChIP was carried out on an ABI StepOne Plus using SYBR green dye. Genomic Locations of SRE-1 sites within the promoters of sterol biosynthesis genes were located using a literature search: HMGCS 1 (Inoue et al., 1998), HMGCR (Boone et al., 2009), MVK (Bishop et al., 1998), FDPS (Ishimoto et al., 2010), FDFT1 (Inoue et al., 1998), SQLE (Nagai et al., 2002) and CYP51A1 (Halder et al., 2002), respectively. ChIP primer sequences are provided in Table 2 of PCT/US 11/55488 and are incorporated by reference.\nMDA-468.shp53 cells were treated with Fatostatin (20 μM) and subjected to ChIP analysis. FIG. 1. Cells in 3D culture were treated on Day 1 or Day 4 of the 3D protocol and refed every 4 days with fresh drug. Data are presented as mean+−SD of six independent experiments. **p<0.01."}, "MDA-231 cells": {"test_system": "MDA-231 cells", "experiment": "Three-dimensional culture of MDA-231.shp53 cells", "type": "cell-based", "conditions": "3D culture 8 days, fatostatin 2 or 20 μM added day 1", "method": "FIG. 2. MDA-231.shp53 cells were grown in 3D cultures for 8 days and treated with (A) DMSO, (B) Fatostatin 2 μM or (C) Fatostatin 20 μM. Drugs were added on day 1. Representative DIC images are shown. Scale bar, 200 μm.\n(§1) Three-dimensional culture was carried out as described in Debnath et al., 2003. Briefly, 8-well chamber slides were lined with 50 μl growth factor reduced Matrigel (BD Biosciences). Cells were then seeded at a density of 5,000 cells/well in Assay Medium (DMEM/F12+2% Horse Serum+10 μg/ml Insulin+0.5 μg/ml Hydrocortisone) containing 2% Matrigel. Cells were refed with Assay Medium containing 2% Matrigel every 4 days. For RNA/protein analysis from 3D cultures, 35 mm plates were lined with 500 μl Matrigel and cells were seeded at a density of 225,000 cells/plate in Assay Medium+2% Matrigel. Cells were harvested using Cell Recovery Solution (BD Biosciences) according to the manufacturer's instructions.\nMDA-231.shp53 cells were grown in 3D cultures for 8 days and treated with DMSO and fatostatin (2 or 20 μM). Drugs were added on day 1. Representative DIC images are shown. FIG. 2. Scale bar, […]."}, "SKBR3 cells": {"test_system": "SKBR3 cells", "experiment": "Three-dimensional culture of SKBR3 cells", "type": "cell-based", "conditions": "3D culture 8 days, fatostatin 2 or 20 μM added Day 1", "method": "(§2) FIG. 3. Fatostatin inhibits SKBR3 cell growth in 3D Culture. SKBR3 cells were grown in 3D cultures for 8 days treated with (A) DMSO, (B) Fatostatin 2 μM or (C) Fatostatin 20 μM. Drugs were added on Day 1. Representative Differential Interference Contrast (DIC) images are shown. Scale bar, 200 μm.\nas §1\nSKBR3 cells were grown in 3D cultures for 8 days treated with DMSO, Fatostatin (2 μM) or (20 μM). Drugs were added on Day 1."}, "MDA-468 cells": {"test_system": "MDA-468 cells", "experiment": "Three-dimensional culture of MDA-468.shp53 cells", "type": "cell-based", "conditions": "3D culture 10 days, fatostatin 2 or 20 μM added Day 1", "method": "as §2, with “FIG. 4.” for “FIG. 3.”, “inhibits MDA-468” for “inhibits SKBR3”, “Culture. MDA-468.shp53” for “Culture. SKBR3”, “for 10” for “for 8”\nas §1\nMDA-468.shp53 cells were grown in 3D cultures for 10 days treated with DMSO, Fatostatin (2 μM) or (20 μM). Drugs were added on Day 1."}, "[2]": {"conditions": "mice, after administration of 23 mg/kg; cited from earlier work"}}, "data": [{"smiles": "CCCc1cc(-c2nc(-c3ccc(C)cc3)cs2)ccn1", "note": "[fatostatin, 2-Propyl-4-(4-(p-tolyl)thiazol-2-yl) pyridine]", "values": [{"measurement": "level of mutant p53 binding to the HMG-CoA reductase gene promoter", "setting": "[1]", "value": "significantly reduced"}, {"measurement": "cell growth in 3D culture", "setting": "MDA-231 cells", "value": "inhibited"}, {"measurement": "normalizing the abnormal 3D morphology", "setting": "MDA-231 cells", "value": "dramatic effect on normalizing the abnormal 3D morphology"}, {"measurement": "cell growth in 3D culture", "setting": "SKBR3 cells", "value": "inhibited"}, {"measurement": "normalizing the abnormal 3D morphology", "setting": "SKBR3 cells", "value": "dramatic effect on normalizing the abnormal 3D morphology"}, {"measurement": "cell growth in 3D culture", "setting": "MDA-468 cells", "value": "inhibited"}, {"measurement": "normalizing the abnormal 3D morphology", "setting": "MDA-468 cells", "value": "dramatic effect on normalizing the abnormal 3D morphology"}]}, {"smiles": "CCCc1cc(-c2nc(-c3ccc(NS(C)(=O)=O)cc3)cs2)ccn1", "note": "[N-(4-(2-(2-Propylpyridin-4-yl)thiazol-4-yl)phenyl)methanesulfonamide]", "values": [{"measurement": "oral availability", "setting": "[2]", "value": "demonstrated"}]}]}
